Laboratory results from PubChem BioAssay (NCI).
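Interpolation was linear, between the two tested concentrations surrounding the appropriate level; five concentrations were tested over 48 hours in 96-well plates. GI50 = concentration required for 50% inhibition of growth. The concentration for full growth arrest is given as TGI.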

Tests used:
Assay in all cases: NCI tumour cell line growth inhibition, 48 h
[1] = system: SK-MEL-28 melanoma
[2] = system: SNB-19 CNS
[3] = system: A498 renal
[4] = system: 786-0 renal
[5] = system: A549 NSCLC
[6] = system: SF-295 CNS
[7] = system: HCC-2998 colon
[8] = system: SK-MEL-5 melanoma
[9] = system: NCI-H460 lung
[10] = system: UACC-257 melanoma
[11] = system: HOP-92 NSCLC
[12] = system: MDA-MB-435
[13] = system: MCF7 breast
[14] = system: CCRF-CEM leukemia
[15] = system: U251 CNS
[16] = system: SR leukemia
[17] = system: HT29 colon
[18] = system: HOP-62 NSCLC
[19] = system: SN12C renal
[20] = system: SF-268 CNS
[21] = system: OVCAR-8 ovarian
[22] = system: SNB-75 CNS
[23] = system: PC-3 prostate
[24] = system: TK-10 renal
[25] = system: BT-549 breast
[26] = system: M14 melanoma
[27] = system: SF-539 CNS
[28] = system: HS 578T breast
[29] = system: ACHN renal
[30] = system: RPMI-8226 leukemia

`O=C(Nc1ccc(OCc2ccc(F)cc2)cc1)Nc1ccc(Cl)c(C(F)(F)F)c1` was tested. Which TGI [1] did it give?
Its TGI is 12.7 µM.

And the GI50 [2]?
Its GI50 is 3.22 µM.

What about the TGI [2] of the same molecule?
The TGI was 11.9 µM.

And the GI50 [3]?
Its GI50 is 2.16 µM.

What about the TGI [3] of the same molecule?
Its TGI is 6.69 µM.

And the GI50 [4]?
The GI50 was 3.12 µM.

And the TGI [4]?
Its TGI is 11.9 µM.

And the GI50 [5]?
Its GI50 is 2.83 µM.

What about the TGI [5] of the same molecule?
The TGI was 12.1 µM.

And the GI50 [6]?
The GI50 was 1.89 µM.

And the TGI [6]?
The TGI was 4.82 µM.

And the GI50 [7]?
The GI50 was 3.08 µM.

What about the TGI [7] of the same molecule?
Its TGI is 11.2 µM.

And the GI50 [8]?
Its GI50 is 1.68 µM.

What about the TGI [8] of the same molecule?
Its TGI is 3.07 µM.

And the GI50 [9]?
Its GI50 is 2.51 µM.

And the TGI [9]?
Its TGI is 6.68 µM.

And the GI50 [10]?
Its GI50 is 2.2 µM.

And the TGI [10]?
Its TGI is 6.68 µM.

And the GI50 [11]?
The GI50 was 1.88 µM.

And the TGI [11]?
The TGI was 5.78 µM.

What about the GI50 [12] of the same molecule?
Its GI50 is 2.15 µM.

And the TGI [12]?
Its TGI is 4.9 µM.

And the GI50 [13]?
Its GI50 is 2.25 µM.

What about the TGI [13] of the same molecule?
The TGI was 8.25 µM.

And the GI50 [14]?
The GI50 was 3.01 µM.

What about the TGI [14] of the same molecule?
The TGI was 11.3 µM.

And the GI50 [15]?
Its GI50 is 2.74 µM.

And the TGI [15]?
The TGI was 10.8 µM.

And the GI50 [16]?
Its GI50 is 2.85 µM.

What about the TGI [16] of the same molecule?
Its TGI is 12.6 µM.

And the GI50 [17]?
Its GI50 is 3.33 µM.

What about the TGI [17] of the same molecule?
Its TGI is 14.5 µM.

And the GI50 [18]?
Its GI50 is 3.03 µM.

What about the TGI [18] of the same molecule?
Its TGI is 11.4 µM.

What about the GI50 [19] of the same molecule?
Its GI50 is 2.88 µM.

What about the TGI [19] of the same molecule?
The TGI was 10.3 µM.

What about the GI50 [20] of the same molecule?
Its GI50 is 3.37 µM.

What about the TGI [20] of the same molecule?
Its TGI is 12.1 µM.

And the GI50 [21]?
Its GI50 is 3.52 µM.

And the TGI [21]?
Its TGI is 13.9 µM.

And the GI50 [22]?
The GI50 was 1.33 µM.

What about the TGI [22] of the same molecule?
The TGI was 6.2 µM.

And the GI50 [23]?
The GI50 was 2.21 µM.

What about the TGI [23] of the same molecule?
Its TGI is 10.7 µM.

And the GI50 [24]?
The GI50 was 3.83 µM.

What about the TGI [24] of the same molecule?
Its TGI is 14.4 µM.

What about the GI50 [25] of the same molecule?
The GI50 was 2.08 µM.

What about the TGI [25] of the same molecule?
The TGI was 6.1 µM.

And the GI50 [26]?
The GI50 was 2.79 µM.

What about the TGI [26] of the same molecule?
Its TGI is 10.4 µM.

What about the GI50 [27] of the same molecule?
The GI50 was 3.13 µM.

What about the TGI [27] of the same molecule?
The TGI was 10.1 µM.

And the GI50 [28]?
The GI50 was 2.88 µM.

What about the TGI [28] of the same molecule?
The TGI was 8.28 µM.

What about the GI50 [29] of the same molecule?
Its GI50 is 3.21 µM.

And the TGI [29]?
The TGI was 11 µM.

And the GI50 [30]?
The GI50 was 2.77 µM.

And the TGI [30]?
The TGI was 21.8 µM.
